Assay results published in patent US9616051B2, “Drug targets to overcome de novo drug-resistance in multiple myeloma” (H. Lee Moffitt Cancer Center and Research Institute, Inc., priority 2008, dated 2017).
“Also recorded” adds a separate entry of the source. Read-outs that look alike come from different tables or passages of the source.

Assays:
topo IIα [1] = target: T1, topo IIα (Homo sapiens, UniProt P11388); experiment: Nuclear-cytoplasmic fractionation and Western blot for topo IIα; format: cell-based; details: high-density RPMI-H929 cells, 25 μM, FIG. 13 legend
T1 construct: effect on the intracellular location of topo IIα in treated MM cells; endogenous in cells; host or cells: human multiple myeloma cells NCI-H929
T1 sequence (P11388 whole entry): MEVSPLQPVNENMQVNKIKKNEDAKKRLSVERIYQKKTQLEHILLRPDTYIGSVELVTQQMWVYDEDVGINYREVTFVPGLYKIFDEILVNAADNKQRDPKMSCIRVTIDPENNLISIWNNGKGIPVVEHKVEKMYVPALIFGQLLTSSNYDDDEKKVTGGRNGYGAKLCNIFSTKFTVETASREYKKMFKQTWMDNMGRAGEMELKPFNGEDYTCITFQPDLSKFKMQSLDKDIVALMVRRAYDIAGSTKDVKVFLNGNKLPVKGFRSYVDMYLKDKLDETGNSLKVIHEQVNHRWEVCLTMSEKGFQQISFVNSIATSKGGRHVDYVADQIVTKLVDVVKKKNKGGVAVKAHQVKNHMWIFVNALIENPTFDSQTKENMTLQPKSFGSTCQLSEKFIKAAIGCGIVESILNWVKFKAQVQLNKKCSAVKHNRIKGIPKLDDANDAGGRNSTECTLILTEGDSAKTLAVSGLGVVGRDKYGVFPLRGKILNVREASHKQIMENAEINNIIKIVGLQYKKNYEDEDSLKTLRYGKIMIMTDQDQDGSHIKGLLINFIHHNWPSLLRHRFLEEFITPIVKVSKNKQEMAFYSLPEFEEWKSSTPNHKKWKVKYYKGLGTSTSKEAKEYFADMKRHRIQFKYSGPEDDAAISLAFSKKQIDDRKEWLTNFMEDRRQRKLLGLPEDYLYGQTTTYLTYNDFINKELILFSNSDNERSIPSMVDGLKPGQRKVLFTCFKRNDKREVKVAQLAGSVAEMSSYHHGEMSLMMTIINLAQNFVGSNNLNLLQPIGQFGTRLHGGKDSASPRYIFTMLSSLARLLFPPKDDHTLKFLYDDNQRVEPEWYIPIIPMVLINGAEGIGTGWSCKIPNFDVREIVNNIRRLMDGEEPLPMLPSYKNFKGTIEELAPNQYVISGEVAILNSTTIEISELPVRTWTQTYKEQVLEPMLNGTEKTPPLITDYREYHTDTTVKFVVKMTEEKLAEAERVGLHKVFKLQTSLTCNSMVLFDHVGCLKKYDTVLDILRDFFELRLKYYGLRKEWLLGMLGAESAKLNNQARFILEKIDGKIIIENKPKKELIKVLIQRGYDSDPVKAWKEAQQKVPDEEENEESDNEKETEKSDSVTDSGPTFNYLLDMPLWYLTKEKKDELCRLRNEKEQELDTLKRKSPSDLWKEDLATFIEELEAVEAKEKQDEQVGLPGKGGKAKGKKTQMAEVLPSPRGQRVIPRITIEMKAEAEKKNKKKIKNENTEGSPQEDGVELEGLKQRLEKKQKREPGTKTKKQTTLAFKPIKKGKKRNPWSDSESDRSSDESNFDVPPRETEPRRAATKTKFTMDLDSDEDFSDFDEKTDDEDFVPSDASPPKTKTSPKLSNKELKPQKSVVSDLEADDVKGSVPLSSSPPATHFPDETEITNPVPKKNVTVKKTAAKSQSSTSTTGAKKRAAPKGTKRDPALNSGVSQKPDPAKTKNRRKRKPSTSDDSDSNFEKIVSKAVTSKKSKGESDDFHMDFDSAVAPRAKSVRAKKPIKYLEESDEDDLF
Procedure: FIGS. 13(A) and (B) are blots from nuclear (nuc)-cytoplasmic (cyto) fractionation of high-density MM cells (n=2). […] Human myeloma RPMI-H929 cells were treated for 24 hours. Cells were then chemically separated into nuclear and cytoplasmic fractions.
Human myeloma cells were placed at plateau concentrations (4×10^6 cells/ml), and NES inhibitors were added at 25 μM for 20 hours. Cells were collected, washed in PBS, and fractionated by a method adapted from Li et al. (Li Y, Bor Y C, Misawa Y, Xue Y, Rekosh D, Hammarskjold M L. An intron with a constitutive transport element is retained in a Tap messenger RNA. Nature 2006; 443: 234-7). Separated fractions containing nuclei or precipitated cytosol were dissolved in 2% SDS buffer and assayed by SDS-PAGE Western blot analysis. Blots were probed with an anti-topo IIα Kis1 antibody (Millipore Corp.). […] Cells grown at log-phase concentrations were also fractionated. After MM cells were treated with NCI-9138 at 25 μM for 20 hours, CRM1-topo IIα complexes were isolated from cells by immunoprecipitation using a combination of both protein A and protein G magnetic beads according to the manufacturer's protocol (Miltenyi Biotec, Cologne, Germany). Co-immunoprecipitation was performed with 2 μg of anti-CRM1 antibody (Santa Cruz Biotechnology, Inc., Santa Cruz, Calif.). Immunoprecipitation samples were separated by SDS-PAGE, transferred to nitrocellulose membranes, and probed with anti-topo IIα Kis1 antibody (Millipore, Corp., Billerica, Mass.) and anti-mouse horseradish peroxidase secondary antibody.

topo IIα [2] = target: T1, topo IIα; experiment: as above; format: cell-based; details: RPMI-H929 cells, 100 μM, 24 hours, relative to untreated controls
topo IIα [3] = target: T1, topo IIα; experiment: Immunofluorescence microscopy of intracellular location of topo IIα; format: cell-based; details: 25 μM NES inhibitor; for Nuclear export of topo IIα by immunofluorescence: 20 hours, high-density (plateau) MM cells; for Fold-increase nuclear topo IIα: H929 cells, nucleus v cytoplasm fluorescence vs untreated high-density controls
Procedure: Slides were viewed with a fully automated, upright Zeiss Axio-ImagerZ.1 microscope (Carl Zeiss A G, Oberkochen, Germany). Briefly, the DAPI image was used as a mask to segment the nuclear region from the Alexa 594 image. The remaining portion of the Alexa 594 image represents the cytosol, and individual nucleus and cytosol images were analyzed.
H929 cells were mock treated with 0.1% DMSO in media or with 25 μM of NES inhibitor. The high density control cells, seen in FIG. 9(A) show high levels of topo II staining outside the nucleus, evidencing export of topo II from the nucleus.

[4] = test system: high-density MM cells (H929); experiment: Cleaved caspase 3 apoptosis assay, sensitization to doxorubicin; details: for Sensitization of high-density MM cells to doxorubicin / synergism: 25 μM NES inhibitor, doxorubicin 2 μM; for Fold-Increased sensitization to dox: dox/drug (dox 2 μM) divided by dox alone
p53 = p53 nuclear export in low-density myeloma cells (nuclear fraction Western blot); format: cell-based, human; details: H929 at low density (log growth), 25 μM, 20 hours
Procedure: FIG. 14 is a blot of lead compounds tested to determine if nuclear export inhibition was specific to topo IIα protein. p53 was cycled from the nucleus into the cytoplasm in MM cells cultured at log growth conditions. Cells grown at log-phase concentrations were treated with the lead NES inhibitors (25 μM) or a leptomycin control for 20 hours and chemically fractionated. Nuclei were assayed by SDS-PAGE Western blot analysis for p53 protein (anti-p53 (DO-1), Santa Cruz Biotech, Inc). […] Lamin A/C (anti-lamin A/C, BD Pharmingen) is shown as a loading control.
Cells grown at low concentrations were treated with the lead NES inhibitors (25 μM) or a leptomycin B (5 nM) control for 20 hours and chemically fractionated. Nuclei were assayed by SDS-PAGE Western blot analysis for p53 protein.

FLOW = experiment: CT-Glo cytotoxicity assay, FLOW cells; format: cell-based; details: 72-h CT-Glo, average ± SD
Procedure: (§1) The molecules with the highest docking scores were assayed for IC50 values. Cultures were tested for cytotoxicity using the CellTiter-Glo assay (CT-Glo cytotoxicity assay; Promega, Madison, Wis.), a luminescence-based homogeneous method for determining the number of viable cells in culture based on quantitation of the ATP present, which signals the presence of metabolically active cells (Corsino, et al., A novel class of cyclin-dependent kinase inhibitors identified by molecular docking act through a unique mechanism. J Biol Chem 2009; 284: 29945-55; Homsi, et al., Src activation in melanoma and Src inhibitors as therapeutic agents in melanoma. Melanoma Res 2009; 19: 167-75). All cells were assayed at log-phase growth conditions. Luminescence was measured with a Synergy 4 microplate reader (Bio-Tek Instruments, Inc., Winooski, Vt.). IC50 values were determined using a sigmoidal equilibrium model regression using XLfit version 5.2 (ID Business Solutions Ltd., Surrey, UK) (Corsino, et al., A novel class of cyclin-dependent kinase inhibitors identified by molecular docking act through a unique mechanism. J Biol Chem 2009; 284: 29945-55).

SK-UT = experiment: CT-Glo cytotoxicity assay, SK-UT cells; format: cell-based; details: 72-h CT-Glo, average ± SD
Procedure: as §1

RPMI-8226 (8226) = experiment: CT-Glo cytotoxicity assay, 8226 cells; format: cell-based, human; details: 8226 cells, 72-h CT-Glo, log-phase (low-density), average ± SD, read-out: IC50
Source text: (§2) Compounds identified in Example 1 as the top scoring potential inhibitors for each of the two NES (20 each) were obtained from NCI and structures of these molecules confirmed using NMR and mass spectroscopy analysis, seen in FIGS. 4(A)-(C) and 5(A)-(D). The potential inhibitors were followed up using in vitro model cell cultures. MM cell lines NCI-H929 (H929) and RPMI-8226 (8226) were obtained from and tested for authenticity by the American Type Culture Collection (Manassas, Va.). All cell lines were grown as described previously (Turner, et al., Human topoisomerase IIalpha nuclear export is mediated by two CRM-1-dependent nuclear export signals. J Cell Sci 2004; 117: 3061-71).
as §1

HL-60 = experiment: CT-Glo cytotoxicity assay, HL-60 cells; format: cell-based; details: 72-h CT-Glo
Procedure: as §1

NCI-H929 (H929) = experiment: CT-Glo cytotoxicity assay, H929 cells; format: cell-based, human; details: average ± SD
Source text: as §2, §1

MCF-7 = experiment: CT-Glo cytotoxicity assay, MCF-7 cells; format: cell-based; details: average ± SD
Procedure: as §1

Kg-1a = experiment: CT-Glo cytotoxicity assay, Kg-1a cells; format: cell-based; details: 72-h CT-Glo
Procedure: as §1

WI-38 = experiment: CT-Glo cytotoxicity assay, WI-38 cells; format: cell-based; details: 72-h CT-Glo
Procedure: as §1

PBMC = experiment: CT-Glo cytotoxicity assay, PBMC; format: cell-based; details: 72-h CT-Glo, average ± SD
Procedure: as §1

[5] = in vivo; cited from earlier work
[6] = for 1 hour; cited from earlier work
topo IIα [7] = details: cited from earlier work
[8] = Homo sapiens, NCI-H929, 72-h CT-Glo
[9] = Homo sapiens, MCF7, 72-h CT-Glo

Compound | Export of topo IIα, nuclear-cytoplasmic fractionation (topo IIα [1]) | Cytoplasmic level / nuclear localization of topo IIα, fractionation Western blot (topo IIα [2]) | Nuclear export of topo IIα by immunofluorescence (topo IIα [3]) | Sensitization of high-density MM cells to doxorubicin / synergism [4] | Nuclear export of p53 (p53) | IC50 (FLOW) [µM] | IC50 (SK-UT) [µM] | Fold-Increased sensitization to dox [4] [fold] | further results
O=C(C[N+]12CN3CN(CN(C3)C1)C2)c1ccc(Br)cc1 [NCI-32237, 1-(4-bromophenyl)-2-(15,3,5,7-tetraazatricyclo[3.3.1.1~3,7~]dec-1-yl)ethanone] | did not affect nuclear export of topo II | did not affect nuclear export of topo II | – | – | – | – | – | – | –
O/N=C(/C[N+]12CN3CN(CN(C3)C1)C2)c1ccc(I)cc1 [NCI-35024, 1-(4-iodophenyl)-2-(15,3,5,7-tetraazatricyclo[3.3.1.1~3,7~]dec-1-yl)ethanone oxime] | – | – | prevent nuclear export of Topo IIα | significantly (p<0.05) sensitize high density MM cells to doxorubicin | – | – | – | – | –
O=C(Nc1ccc(C2=NCCN2)cc1)c1ccc(C(=O)Nc2ccc(C3=NCCN3)cc2)c([N+](=O)[O-])c1 [NCI-35847, N1,N4-bis(4-(4,5-dihydro-1H-imidazol-2-yl)phenyl)-2-(hydroxy(oxido)amino)terephthalamide] | strongly blocked export of topo IIα | reduced cytoplasmic levels of topo IIα equivalent to that produced by the CRM-1 inhibitor ratjadone C | prevent nuclear export of Topo IIα; also recorded: overlapping staining of topo II with DAPI | synergized with the topo II inhibitor doxorubicin; also recorded: significantly (p<0.05) sensitize high density MM cells to doxorubicin | did not prevent export of p53 | 62.8 | 55.3 | 2.65 ± 0.90 | IC50 (RPMI-8226 (8226)): 7.2 ± 1.4 µM; Fold-increase nuclear topo IIα (topo IIα [3]): 2.81 fold; IC50 (HL-60): 36.5 µM; IC50 (NCI-H929 (H929); 72-h CT-Glo): 13.9 µM; IC50 (MCF-7; 72-h CT-Glo): 68.5 µM; IC50 (Kg-1a): 73.8 µM; IC50 (WI-38): 199 µM
O=C(C[N+]12CN3CN(CN(C3)C1)C2)c1ccc2ccccc2c1 [NCI-36400, 1-(2-naphthyl)-2-(15,3,5,7-tetraazatricyclo[3.3.1.1~3,7~]dec-1-yl)ethanone] | – | – | prevent nuclear export of Topo IIα | significantly (p<0.05) sensitize high density MM cells to doxorubicin | – | – | – | – | –
Brc1ccc(C[N+]23CN4CN(CN(C4)C2)C3)cc1 [NCI-80640, 1-(4-bromobenzyl)-15,3,5,7-tetraazatricyclo[3.3.1.1~3,7~]decane] | smaller or little effect on topo II nucleus export inhibition | reduced cytoplasmic levels of topo IIα equivalent to that produced by the CRM-1 inhibitor ratjadone C | overlapping staining of topo II with DAPI | synergized with the topo II inhibitor doxorubicin | significantly inhibit nuclear export of p53 | 35.6 | 25.5 | 2.42 ± 1.09 | IC50 (PBMC): 16.4 µM; IC50 (RPMI-8226 (8226); Homo sapiens, RPMI-8226): 12 ± 4.2 µM; IC50 (HL-60; Homo sapiens): 11.9 µM; IC50 (NCI-H929 (H929); [8]): 16.2 µM; IC50 (MCF-7; [9]): 25.9 µM; IC50 (Kg-1a; Homo sapiens): 15.2 µM; IC50 (WI-38; Homo sapiens): 56.3 µM
Clc1cc(Cl)c(C[N+]23CN4CN(CN(C4)C2)C3)cc1Cl [NCI-155877, 1-(2,4,5-trichlorobenzyl)-15,3,5,7-tetraazatricyclo[3.3.1.1~3,7~]decane] | smaller or little effect on topo II nucleus export inhibition | did not significantly reduce the level of cytoplasmic topo IIα | overlapping staining of topo II with DAPI | synergized with the topo II inhibitor doxorubicin | did not prevent export of p53 | 56.8 | 50.4 | 2.82 ± 1.18 | IC50 (PBMC): 37.2 µM; IC50 (RPMI-8226 (8226); Homo sapiens, RPMI-8226): 19.5 ± 5.4 µM; Fold-increase nuclear topo IIα (topo IIα [3]): 3.92 fold; IC50 (HL-60; Homo sapiens): 20.4 µM; IC50 (NCI-H929 (H929); [8]): 33.6 µM; IC50 (MCF-7; [9]): 37.1 µM; IC50 (Kg-1a; Homo sapiens): 31.4 µM; IC50 (WI-38; Homo sapiens): 136 µM
CCC(=C/[C@H](C)C/C=C/C(C)=C/[C@@H](C)C(=O)[C@@H](C)[C@H](O)[C@@H](C)C/C(C)=C/C(=O)O)/C=C/[C@@H]1OC(=O)C=C[C@@H]1C [leptomycin B] | – | – | – | – | – | – | – | – | Toxicity in human phase I trial [5]: acute relative toxicities; Concentration with acute toxicity in vitro [6]: < 5 nM; Export mediated by topo IIα NES site A and site B (topo IIα [7]): blocked
Ratjadone C [reference compound] | prevented nuclear export | – | – | – | – | – | – | – | –
